Laboratory results from patent publication US9944669B2, “Fumarate-CO-releasing molecule hybrids, their use in the treatment of inflammatory or cardiovascular diseases and their process of preparation” (UNIVERSITE PARIS EST CRETEIL VAL DE MARNE, priority 2014, dated 2018).
Counter-ions that a name gives are not always drawn.

How the values were obtained:
[1] = system: BV2 cells challenged with lipopolysaccharide (LPS); assay: Nitrite production in BV2 cells challenged with LPS (Griess method); assay type: cell-based
Method: […] At the end of the incubation, nitrite levels were measured using the Griess method.^12,14 Briefly, cell plates were centrifuged at 10,000×g for 5 min and the cell-free supernatant was incubated with an equal volume of Griess reagent (2 mM N-(1-naphtyl)ethylenediamide, 30 mM sulfanilamide and 140 mM o-phosphoric acid) for 10 min at room temperature. The absorbance was measured at 560 nm. Concentrations of nitrite (μM) were calculated from a standard curve of sodium nitrite.

[2] = system: HO-1; assay: HO-1 protein expression in THP-1 cells; assay type: cell-based, Human
Method: THP-1 cells were exposed to different concentration of compounds A, B, and C during 6 hours.

[3] = system: TNF-α; assay: TNF-α production in THP-1 cells challenged with LPS; assay type: cell-based, Human; conditions: LPS (100 μg/ml), 5 μM compound, 24 h
Method: Human THP-1 cells cultured as in Example 3.3 were treated with LPS (100 μg/ml) alone or in the presence of 5 μM compound C, compound E or the comparative dimethyl fumarate (DMF) for 24 h.

SMILES	Nitrite levels (μM) LPS + compound ([1]; 5 μM compound, 24 hr incubation with 0.5 μg/ml LPS, mean ± SEM) [µM]	% decrease vs. LPS (nitrite) ([1]; 5 μM compound, 24 hr, LPS) [%]	concentration giving almost the same reduction of nitrite production (compound C vs compound J) ([1]; BV2, LPS 1 μg/ml 24 h) [µM]	concentration needed for the same HO-1 result, as fold of the compound C concentration (5 μM) [2] [fold]	TNF-α production [3]
C#CCOC(=O)/C=C/C(=O)OCC [Compound J]	43.2 ± 1.0	50.1	5	10	
COC(=O)/C=C/C(=O)OC [dimethyl fumarate (DMF)]					did not have any effect
